The subject of one assay is PC-9 cells. Description: MTS assay of living cells, PC-9 cells cultured 72 hours with drug. In kind it is cell-based, human. The following applies: gefitinib at various concentrations, FIG. 5. On the procedure:
(§1) PC-9 cells or cells obtained by introducing the oncogene, the PDGFRα V561D gene into PC-9 cells in Example 4 were seeded in a 96-well plate. The cells were cultured for 72 hours in medium containing gefitinib at various concentrations, and then living cells were quantified by an MTS assay.

The subject of assay [1] is PDGFRα V561D gene-introduced cells (PC-9). Description: MTS assay of living cells, PDGFRα V561D gene-introduced PC-9 cells cultured 72 hours with drug. Format: cell-based, human. On the procedure:
as §1
The cells obtained by introducing the PDGFRα V561D gene into PC-9 cells in Example 4 were seeded in a 96-well plate. The cells were cultured in medium containing a PDGFRα inhibitor, imatinib at various concentrations or medium containing 1 μM gefitinib and imatinib at various concentrations for 72 hours, and then living cells were quantified by the MTS assay.

Turning to `COc1cc2ncnc(Nc3ccc(F)c(Cl)c3)c2cc1OCCCN1CCOCC1` [gefitinib], in the assay on PC-9 cells, the “proliferation of PC-9 cells” value was “inhibited by gefitinib in a dose dependent manner”. Moreover, the “proliferation of the PDGFRα V561D gene-introduced cells” value in assay [1] (gefitinib at various concentrations, FIG. 5) is “not inhibited”; in assay [1] (in the presence of 1 μM gefitinib (medium with imatinib at various concentrations), FIG. 6), “inhibited in the presence of 1 μM gefitinib”.
As to `Cc1ccc(NC(=O)c2ccc(CN3CCN(C)CC3)cc2)cc1Nc1nccc(-c2cccnc2)n1` [imatinib], in assay [1] (imatinib at various concentrations in the presence of 1 μM gefitinib, FIG. 6), the “proliferation of the PDGFRα V561D gene-introduced cells” value is listed as “inhibited by the PDGFRα inhibitor, imatinib in a dose dependent manner”.

(Values after patent US9157905B2, “Method for identifying oncogene, method for establishing oncogene-expressing cell, and method of screening oncogene targeting drug” (FUJIREBIO INC., priority 2010, dated 2015).)
